Source: patent US20210236467A1, “DANTROLENE FORMULATIONS AND METHODS OF THEIR USE” (EAGLE PHARMACEUTICALS, INC., priority 2018, published 2021)
In brackets after ≈: the same amount, converted by molar mass.

Key:
[1] = Precipitation on dilution/addition of water; assay type: physicochemical
[2] = cited from earlier work
[3] = Solubility / concentration determination by UPLC of supernatant; assay type: physicochemical; settings: organic solvent or mixture, thermodynamic from solid; saturated supernatant, room temperature, propylene glycol
Experimental: (§1) 11.2 mgs of dantrolene acid was added to 224 uL of PEG400. […] The tube was centrifuged for 5 min at 15,000 rpm at room temperature to separate the sample into supernatant (dantrolene acid in solution) and pellet (insoluble material). The supernatant was transferred into a clean tube and diluted 100-, 200- and 400-fold in 25% acetonitrile for analysis by UPLC as described below.
as §1, with “16.3” for “11.2”, “326” for “224”, “propylene glycol.” for “PEG400.”, “50-, 100-” for “100-, 200-”, “200-fold” for “400-fold”, “below. The solubility of dantrolene acid in propylene glycol was calculated as ˜0.8 mg/mL.” for “below.”
13.0 mgs of dantrolene acid was dissolved in 1.3 mL of PEG400, targeting 10 mg/mL dantrolene acid. […]
Analysis was performed using an Agilent UPLC System equipped with a diode array detector and an Agilent C18 Zorbax column. Samples were analyzed using a gradient method with mobile phase A containing 0.1% trifluoroacetic acid in water and mobile phase B containing 0.1% trifluoroacetic acid in acetonitrile. […] A 10 uL sample was injected and the analytes were detected by UV at 385 nm. […] Peak areas were determined by manual integration. […]

[4] = Dissolution and solution stability by visual inspection; assay type: physicochemical; settings: for dissolution on visual inspection: target 10 mg/mL in PEG400, after vortexing
Experimental: 13.0 mgs of dantrolene acid was dissolved in 1.3 mL of PEG400, targeting 10 mg/mL dantrolene acid. 12.7 mgs of dantrolene sodium was dissolved in 1.27 mL of PEG400, targeting 10 mg/mL of dantrolene sodium. […] Both tubes were centrifuged for 5 min at 3,900 rpm at room temperature to separate the sample into supernatant (dantrolene acid or dantrolene sodium in solution) and pellet (insoluble material). […] The supernatant of the dantrolene acid sample was transferred into a clean tube. The dantrolene acid supernatant and the dantrolene sodium solution were diluted 100- and 200-fold in 25% acetonitrile for analysis on the UPLC as described below.
(§2) Dantrolene sodium (6.4 mg) was weighed into a glass vial and propylene glycol (0.128 mL) was added, using a positive displacement pipette to achieve a target concentration of 50 mg/mL of dantrolene sodium. The contents of the vials were mixed with a positive displacement pipette. Visual inspection confirmed that the solutions were clear. The sample was a stable solution for at about 2 days at room temperature, after which time, precipitate formed. The precipitate was 99.9% dantrolene, as determined using HPLC.
as §2, with “(6.2” for “(6.4”, “PEG400 (0.124” for “propylene glycol (0.128”, “that” for “that the”

[5] = Effective pH determination (10-fold dilution of non-aqueous sample in water); assay type: physicochemical; settings: for effective pH of 10 mg/mL samples in PEG400: Example 3, target 10 mg/mL in PEG400, 10-fold dilution in water, ratios acid:sodium by volume; for pH of the supernatant (effective pH): 10-fold dilution in water
Experimental: The pH of the supernatant was measured by making a 10-fold dilution of the supernatant in water.
The effective pH of the supernatant was measured by making a 10-fold dilution of the supernatant in water.
The effective pH of the dantrolene acid supernatant and dantrolene sodium sample was measured by making 10-fold dilutions in water, per the methods described elsewhere herein.
The effective pH of each sample was measured by making 10F dilutions in water. The pH values were recorded as follows—
Effective pH measurements were conducted at ambient room temperature, using a Thermo Scientific Orion Star A111 pH benchtop meter. The instrument was calibrated within one day of the effective pH measurement using phosphate buffers at pH 4, 7, and 10 (Hydrion Tri-Chek Buffer Capsule set).
Samples were prepared by diluting the non-aqueous/anhydrous sample 10 fold with water. The diluted sample was vortexed for about 10 to 15 seconds. Effective pH was measured using the pre-calibrated pH benchtop meter, directly after vortexing.
After each effective pH measurement, the pH bulb was rinsed with an appropriate rinse solution to remove the entire test sample from the bulb.

[6] = pH of aqueous slurry of dantrolene sodium; assay type: physicochemical; settings: 43.5 mg in 43.5 mL of water
Experimental: 43.5 mgs of dantrolene sodium was slurried in 43.5 mL of water in a conical tube. The pH of the initial of the slurry was 9.89.

Structure (SMILES): O=C1CN(/N=C/c2ccc(-c3ccc([N+](=O)[O-])cc3)o2)C(O)=N1 [dantrolene acid, 1-{[5-(4-nitrophenyl)-2-furyl]methylideneamino}imidazolidine-2,4-dione]
- behaviour of the 10-fold dilution in water ([1]; PEG400 supernatant): precipitated out quickly
- behaviour of the 10-fold dilution in water ([1]; propylene glycol supernatant): precipitated out slowly
- solubility in water [2]: very poorly soluble in water
- solubility [3]: ~800 µg/mL (≈ 2550 µM)
- dissolution on visual inspection [4]: cloudy after vortexing
- effective pH of 10 mg/mL samples in PEG400 [5]: 4.95
- pH of the supernatant (effective pH) ([5]; PEG400 supernatant): 4.88
- pH of the supernatant (effective pH) ([5]; propylene glycol supernatant): 5.73

Structure (SMILES): O=C1CN(/N=C/c2ccc(-c3ccc([N+](=O)[O-])cc3)o2)C(O)=N1 [dantrolene sodium]
- effect of addition of 50 μL of water ([1]; 50 mg/mL in PEG400 (0.124 mL)): precipitation
- effect of addition of 50 μL of water ([1]; 50 mg/mL in propylene glycol (0.128 mL)): precipitation
- time as stable solution before precipitate formed ([4]; 50 mg/mL in PEG400, room temperature): about 2 days
- time as stable solution before precipitate formed ([4]; 50 mg/mL in propylene glycol, room temperature): about 2 days
- dissolution on visual inspection [4]: completely dissolved
- visual inspection of solution ([4]; target 50 mg/mL in PEG400): clear
- visual inspection of solution ([4]; target 50 mg/mL in propylene glycol): clear
- effective pH of 10 mg/mL samples in PEG400 [5]: 9.67
- pH of the initial slurry [6]: 9.89
